Test results as given in patent US11739098B2 (BRISTOL-MYERS SQUIBB COMPANY, priority 2017, dated 2023).

Experiments:
Type in all cases: cell-based
human TLR9 = molecular target: T1, human TLR9 (Homo sapiens, UniProt Q9NR96); assay: TLR9 inhibition reporter assay (HEK-Blue cells, SEAP reporter, ODN2006 stimulation); details: HEK-Blue cells overexpressing human TLR9, SEAP reporter, ODN2006 5 nM
T1 construct: host or cells: HEK-Blue cells (HEK293-derived reporter line)
T1 sequence (Q9NR96 26-1032): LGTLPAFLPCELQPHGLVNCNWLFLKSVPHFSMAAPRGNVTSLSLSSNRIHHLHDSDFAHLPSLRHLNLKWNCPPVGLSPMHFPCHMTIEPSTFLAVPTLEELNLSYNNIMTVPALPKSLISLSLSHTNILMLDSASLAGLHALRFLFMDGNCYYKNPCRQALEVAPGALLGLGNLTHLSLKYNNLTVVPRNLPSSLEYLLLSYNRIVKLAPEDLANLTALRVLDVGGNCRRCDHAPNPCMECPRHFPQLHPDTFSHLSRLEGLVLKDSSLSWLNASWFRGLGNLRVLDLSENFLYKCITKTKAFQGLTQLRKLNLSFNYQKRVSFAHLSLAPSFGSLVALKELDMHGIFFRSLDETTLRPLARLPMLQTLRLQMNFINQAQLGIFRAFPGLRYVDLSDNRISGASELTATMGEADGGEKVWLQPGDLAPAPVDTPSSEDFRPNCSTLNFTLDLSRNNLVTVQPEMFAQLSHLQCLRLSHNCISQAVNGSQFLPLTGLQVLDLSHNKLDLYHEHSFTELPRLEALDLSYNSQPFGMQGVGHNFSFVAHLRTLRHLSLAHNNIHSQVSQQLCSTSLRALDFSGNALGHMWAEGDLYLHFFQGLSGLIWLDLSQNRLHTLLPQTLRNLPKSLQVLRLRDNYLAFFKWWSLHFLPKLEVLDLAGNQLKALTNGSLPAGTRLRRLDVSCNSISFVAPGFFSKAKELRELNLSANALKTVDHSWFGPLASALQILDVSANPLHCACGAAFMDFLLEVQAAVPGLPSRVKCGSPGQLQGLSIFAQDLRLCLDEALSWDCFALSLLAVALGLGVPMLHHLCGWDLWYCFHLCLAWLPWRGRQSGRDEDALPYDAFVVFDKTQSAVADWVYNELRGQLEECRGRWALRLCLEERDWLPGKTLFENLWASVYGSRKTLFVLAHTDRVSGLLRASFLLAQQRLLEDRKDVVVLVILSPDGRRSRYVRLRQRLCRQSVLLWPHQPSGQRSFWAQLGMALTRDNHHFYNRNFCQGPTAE
Summary of the method: (§1)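 HEK-Blue cells overexpressing human TLR7, TLR8 or TLR9 (NF-κB/AP-1-driven SEAP) pre-treated 30 min at room temperature with compound (0.05 nM–50 μM), then stimulated with gardiquimod 7.5 μM (TLR7), R848 15.9 μM (TLR8) or ODN2006 5 nM (TLR9). SEAP read colorimetrically after 22 h at 37 °C; % inhibition calculated.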

human TLR7 = molecular target: T2, human TLR7 (Homo sapiens, UniProt Q9NYK1); assay: TLR7 inhibition reporter assay (HEK-Blue cells, SEAP reporter, gardiquimod stimulation); details: HEK-Blue cells overexpressing human TLR7, SEAP reporter, gardiquimod 7.5 μM
T2 construct: host or cells: HEK-Blue cells (HEK293-derived reporter line)
T2 sequence (Q9NYK1 27-1049): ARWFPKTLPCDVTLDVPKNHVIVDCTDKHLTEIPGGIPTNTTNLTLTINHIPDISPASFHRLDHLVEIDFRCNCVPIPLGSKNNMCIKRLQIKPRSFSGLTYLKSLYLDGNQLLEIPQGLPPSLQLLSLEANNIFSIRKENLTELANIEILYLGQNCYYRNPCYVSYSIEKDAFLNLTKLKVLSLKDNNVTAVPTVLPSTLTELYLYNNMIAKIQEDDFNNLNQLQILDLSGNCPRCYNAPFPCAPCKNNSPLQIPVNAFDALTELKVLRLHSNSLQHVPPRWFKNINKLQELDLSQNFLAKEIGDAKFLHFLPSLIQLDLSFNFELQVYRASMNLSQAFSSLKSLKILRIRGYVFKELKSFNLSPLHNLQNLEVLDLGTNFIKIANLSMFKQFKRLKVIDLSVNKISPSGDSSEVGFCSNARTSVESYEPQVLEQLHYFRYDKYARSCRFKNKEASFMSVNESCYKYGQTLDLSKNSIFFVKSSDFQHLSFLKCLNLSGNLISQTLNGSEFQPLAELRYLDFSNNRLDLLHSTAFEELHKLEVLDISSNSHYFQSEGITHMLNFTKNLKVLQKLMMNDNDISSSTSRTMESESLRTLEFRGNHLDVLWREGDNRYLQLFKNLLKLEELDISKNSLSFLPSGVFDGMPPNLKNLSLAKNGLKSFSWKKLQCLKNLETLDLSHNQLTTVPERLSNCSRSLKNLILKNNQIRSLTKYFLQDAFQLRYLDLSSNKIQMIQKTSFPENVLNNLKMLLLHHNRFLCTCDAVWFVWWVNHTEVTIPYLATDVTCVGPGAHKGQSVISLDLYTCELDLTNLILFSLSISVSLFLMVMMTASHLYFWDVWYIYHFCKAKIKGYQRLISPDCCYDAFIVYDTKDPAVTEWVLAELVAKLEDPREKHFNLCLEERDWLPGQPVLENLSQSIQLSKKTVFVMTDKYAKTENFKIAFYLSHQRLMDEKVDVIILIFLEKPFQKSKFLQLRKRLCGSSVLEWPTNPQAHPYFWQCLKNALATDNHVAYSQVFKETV
Summary of the method: as §1

human TLR8 = molecular target: T3, human TLR8 (Homo sapiens, UniProt Q9NR97); assay: TLR8 inhibition reporter assay (HEK-Blue cells, SEAP reporter, R848 stimulation); details: HEK-Blue cells overexpressing human TLR8, SEAP reporter, R848 15.9 μM
T3 construct: host or cells: HEK-Blue cells (HEK293-derived reporter line)
T3 sequence (Q9NR97 27-1041): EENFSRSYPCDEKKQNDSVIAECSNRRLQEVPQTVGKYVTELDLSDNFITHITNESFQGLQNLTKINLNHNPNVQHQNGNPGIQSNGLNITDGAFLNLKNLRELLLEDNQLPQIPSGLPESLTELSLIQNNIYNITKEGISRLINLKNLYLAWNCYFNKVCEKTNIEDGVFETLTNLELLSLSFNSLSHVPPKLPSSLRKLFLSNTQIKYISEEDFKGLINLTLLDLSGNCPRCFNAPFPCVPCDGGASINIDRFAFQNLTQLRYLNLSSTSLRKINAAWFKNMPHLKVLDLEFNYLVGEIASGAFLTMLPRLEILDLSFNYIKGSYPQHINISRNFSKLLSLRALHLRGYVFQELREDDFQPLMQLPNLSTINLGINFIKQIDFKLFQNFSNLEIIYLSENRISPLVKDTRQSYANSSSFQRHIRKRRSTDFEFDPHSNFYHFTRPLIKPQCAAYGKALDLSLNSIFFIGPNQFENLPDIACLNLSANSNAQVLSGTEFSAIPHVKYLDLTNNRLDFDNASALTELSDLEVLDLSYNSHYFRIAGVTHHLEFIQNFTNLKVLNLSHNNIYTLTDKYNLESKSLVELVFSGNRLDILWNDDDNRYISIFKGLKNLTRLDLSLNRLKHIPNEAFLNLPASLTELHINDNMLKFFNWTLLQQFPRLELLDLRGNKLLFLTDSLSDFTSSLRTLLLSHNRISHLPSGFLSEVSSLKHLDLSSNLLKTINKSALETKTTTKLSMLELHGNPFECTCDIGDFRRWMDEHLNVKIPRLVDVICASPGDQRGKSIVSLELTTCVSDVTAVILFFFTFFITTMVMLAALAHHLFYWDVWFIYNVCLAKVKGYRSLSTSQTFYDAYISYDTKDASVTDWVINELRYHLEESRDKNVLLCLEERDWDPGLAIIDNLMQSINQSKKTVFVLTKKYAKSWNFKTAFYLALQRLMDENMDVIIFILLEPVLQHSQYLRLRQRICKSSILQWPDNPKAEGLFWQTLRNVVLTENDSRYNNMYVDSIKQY
Summary of the method: as §1

SMILES	IC50 (human TLR9)	IC50 (human TLR7)	IC50 (human TLR8)
Cc1cc(-c2[nH]c3ccc(C4CCN(Cc5ncn(C)n5)CC4)cc3c2C(C)C)cn2nnnc12 [Example 885, 6-(3-isopropyl-5-(1-((1-methyl-1H-1,2,4-triazol-3-yl)methyl)piperidin-4-yl)-1H-indol-2-yl)-8-methyltetrazolo[1,5-a]pyridine]	1000 to 50000 nM	< 100 nM	< 100 nM
CC(C)c1c(-c2ccnc3cccnc23)[nH]c2ccc(C3CCNCC3)cc12 [Example 22, 4-(3-isopropyl-5-(piperidin-4-yl)-1H-indol-2-yl)-1,5-naphthyridine]	1000 to 50000 nM	100 to 1000 nM	< 100 nM
CCc1c(-c2ccnc3[nH]ncc23)[nH]c2c(F)cc(C3CCNCC3)cc12 [Example 251, 4-(3-ethyl-7-fluoro-5-(piperidin-4-yl)-1H-indol-2-yl)-1H-pyrazolo[3,4-b]pyridine]	100 to 1000 nM	< 100 nM	100 to 1000 nM
CCCN1CCC(c2ccc3[nH]c(-c4cc(C)c5c(c4)ncn5C)c(C(C)C)c3c2)CC1 [Example 956, 5-(3-isopropyl-5-(1-propylpiperidin-4-yl)-1H-indol-2-yl)-1,7-dimethyl-1H-benzo[d]imidazole]	100 to 1000 nM	< 100 nM	100 to 1000 nM
CC(C)c1c(-c2ccc3cnnn3c2)[nH]c2ccc(C3CCN(C(=O)CN(C)C)CC3)cc12 [Example 464, 1-(4-(2-([1,2,3]triazolo[1,5-a]pyridin-6-yl)-3-isopropyl-1H-indol-5-yl)piperidin-1-yl)-2-(dimethylamino)ethan-1-one]	100 to 1000 nM	100 to 1000 nM	100 to 1000 nM
CCc1c(-c2cccc3[nH]ncc23)[nH]c2ccc(C3CCNCC3)cc12 [Example 182, 4-(3-ethyl-5-(piperidin-4-yl)-1H-indol-2-yl)-1H-indazole]	1000 to 50000 nM	1000 to 50000 nM	1000 to 50000 nM
CC(C)c1c(-c2c[nH]c3cccnc23)[nH]c2ccc(C3CCNCC3)cc12 [Example 19, 3-(3-isopropyl-5-(piperidin-4-yl)-1H-indol-2-yl)-1H-pyrrolo[3,2-b]pyridine]	100 to 1000 nM	100 to 1000 nM	1000 to 50000 nM
Cc1nc2cc(-c3[nH]c4ccc(C5CCN(CC(=O)N(C)C)CC5)cc4c3C(C)C)ccn2n1 [Example 326, 2-(4-(3-isopropyl-2-(2-methyl-[1,2,4]triazolo[1,5-a]pyridin-7-yl)-1H-indol-5-yl)piperidin-1-yl)-N,N-dimethylacetamide]	1000 to 50000 nM	< 100 nM	100 to 1000 nM
CCc1c(-c2ccnc3[nH]cnc23)[nH]c2ccc(C3CCNCC3)cc12 [Example 59, 7-(3-ethyl-5-(piperidin-4-yl)-1H-indol-2-yl)-3H-imidazo[4,5-b]pyridine]	100 to 1000 nM	< 100 nM	< 100 nM
CCN(CC)C(=O)C1CCCN(CC(=O)N2CCC(c3ccc4[nH]c(-c5ccnc6[nH]ccc56)c(C(C)C)c4c3)CC2)C1 (stereo not drawn) [Example 568, N,N-diethyl-1-(2-(4-(3-isopropyl-2-(1H-pyrrolo[2,3-b]pyridin-4-yl)-1H-indol-5-yl)piperidin-1-yl)-2-oxoethyl) piperidine-3-carboxamide]	1000 to 50000 nM	< 100 nM	< 100 nM
CC(C)c1c(-c2ccnc3[nH]ncc23)[nH]c2ccc(C3CCN(CCCN4CCOCC4)CC3)cc12 [Example 857, 4-(3-(4-(3-isopropyl-2-(1H-pyrazolo[3,4-b]pyridin-4-yl)-1H-indol-5-yl)piperidin-1-yl)propyl)morpholine]	100 to 1000 nM	1000 to 50000 nM	1000 to 50000 nM
CC(=O)NCCNCC(=O)N1CCC(c2ccc3[nH]c(-c4ccnc5[nH]ncc45)c(C(C)C)c3c2)CC1 [Example 573, N-(2-((2-(4-(3-isopropyl-2-(1H-pyrazolo[3,4-b]pyridin-4-yl)-1H-indol-5-yl)piperidin-1-yl)-2-oxoethyl)amino)ethyl)acetamide]	1000 to 50000 nM	< 100 nM	< 100 nM
CC(C)c1c(-c2ccnc3c2ncn3C)[nH]c2ccc(C3CCNCC3)cc12 [Example 45, 7-(3-isopropyl-5-(piperidin-4-yl)-1H-indol-2-yl)-3-methyl-3H-imidazo[4,5-b]pyridine]	1000 to 50000 nM	100 to 1000 nM	100 to 1000 nM
COc1cc(-c2[nH]c3ccc(C4CCNCC4)cc3c2C(C)C)nn2ncnc12 [Example 38, 6-(3-isopropyl-5-(piperidin-4-yl)-1H-indol-2-yl)-8-methoxy-[1,2,4]triazolo[1,5-b]pyridazine]	100 to 1000 nM	< 100 nM	< 100 nM
CC(C)c1c(-c2cc(CO)c3nccn3c2)[nH]c2ccc(C3CCNCC3)cc12 [Example 124, (6-(3-isopropyl-5-(piperidin-4-yl)-1H-indol-2-yl)imidazo[1,2-a]pyridin-8-yl)methanol]	100 to 1000 nM	< 100 nM	< 100 nM
